Assay results from US20150283127A1, “SAQUINAVIR-NO FOR IMMUNOMODULATION” (ONCONOX APS, priority 2012, published 2015).
Marks after values point to notes of the source that are not given here.

Assays:
MOG-induced EAE = MOG-induced EAE in C57Bl6 mice; format: in vivo; details: for Clinical course of the disease: day 7 to 30; for Disease after interruption of the late prophylactic treatment: observed for further 11 days
Excerpt: Seven to 8 weeks-old male C57Bl6 mice and 6 to 7 weeks-old female SJL mice (Harlan Laboratories srl, San Pietro al Natisone, Udine, Italy) were used in the experiments. They were kept under standard laboratory conditions (non specific pathogen free) with free access to food (Harlan Global Diet 2018) and water and were allowed to adapt at least one week to their environment before commencing the study.
MOG35-55 was synthesized by Genemed synthesis (San Francisco Calif.). The mice were immunized with 200 μg MOG emulsified in CFA with 1 mg of Mycobacterium tuberculosis H37RA (Difco, Detroit, Mich., USA) to make a 1:1 emulsion. Each mouse received subcutaneous injections of 200 μl emulsion divided among two sites draining into the axillary lymph nodes. Pertussis toxin (Calbiochem, Nottingham, UK) was used as a coadjuvant and was administered i.p. at the dose of 200 ng/mouse on day 0 and 2 post immunization. The mice were observed every day by measuring their body weights and clinical signs of EAE until 30 days after immunization. These clinical grading were carried out by an observer unaware of the treatment: 0=no sign of disease; 0.5=partial tail paralysis; 1=tail paralysis; 1.5=tail paralysis+partial unilateral hindlimb paralysis; 2=tail paralysis+hindlimb weakness or partial hindlimb paralysis; 2.5=tail paralysis+partial hindlimb paralysis (lowered pelvi); 3=tail paralysis+complete hindlimb paralysis; 3.5=tail paralysis+complete hindlimb paralysis+incontinence; 4=tail paralysis+hindlimb paralysis+weakness or partial paralysis of forelimbs; 5=moribund or dead.
The study involved 4 groups of 10 animals each. All the groups were immunized with the MOG35-55 peptide in CFA and pertuxis toxin, according to the immunization procedure described above and assigned to the following treatments:
The late prophylactic treatment started on day 7 immunization and continued until day 30; the therapeutic regime started at the onset of the disease and continued for 23 consecutive days.

[1] = test system: melanoma, astrocytoma, prostate cancer cells and various human multidrug resistant tumor cell lines; details: cited from earlier work
murine SPC = test: Apoptosis in murine SPC, Annexin V-FITC staining and cytofluorimetry; format: cell-based, mouse
Excerpt: Experimental animals (C57BL/6 mice, BALB/c mice and Dark Agouti rats) were obtained from the Animal House Facility of the Institute for Biological Research “Sinisa Stanković”, Belgrade, Serbia. Spleen cells (SPC) were isolated from murine spleens and lymph node cells (LNC) were obtained from rat cervical lymph nodes of untreated animals. Draining lymph node cells (DLNC) were obtained from popliteal lymph nodes 8-10 days after immunization of rats with myelin basic protein (guinea pig MBP, kind gift from professor Alexander Fluegel, University of Goettingen, Germany) and complete Freund's adjuvant (CFA, Difco, Detroit, Mich.). The organs were mechanically disrupted, passed through 40-μm nylon mesh filter and the resulting suspension was collected by centrifugation. Red blood cells from single cell suspensions obtained from spleens were lysed using RBC Lysis Buffer (eBioscience, San Diego, Calif.). CD4+ cells were purified from SPC using biotin conjugated antibody specific for CD4 (eBioscience) and IMag SAv particles plus (BD Biosciences, San Diego, Calif.). Obtained purity of CD4 population was more than 97% as determined by flow cytometry. SPC and LNC were seeded at 5×10^6/ml/well, DLNC at 2.5×10^6/ml/well and CD4+ cells at 1×10^6/ml/well of 24-well plates. Cells infiltrating spinal cords (SC) were obtained from SC of rats immunized with MBP+CFA at the time when rats suffered from severe clinical signs of experimental autoimmune encephalomyelitis (EAE). Rats were perfused with sterile PBS, SC were homogenized, adjusted to 30% Percoll (Sigma-Aldrich) and overlaid on 70% Percoll gradient. Following centrifugation at 870 g for 50 min the SC cells (SCC) were recovered from the […] Percoll interface and washed in RPMI-1640 medium. SCC were seeded at 0.5×106/200 μl/well of 96-well plates. SPC and LNC were stimulated with 2.5 μg/ml concanavalin A (ConA, Sigma-Aldrich), DLNC with MBP (10 ng/ml), CD4+ cells with anti-CD3 and anti-CD28 antibody (1 μg/ml each, both from eBioscience) and SCC were left untreated.
The cells positive for Annexin V-FITC were considered apoptotic. The stained cells were acquired by a FACSCalibur cytometer (BD Biosciences) and analyzed using CellQuest Software (BD Biosciences).

[2] = test system: S6 phosphorylation (S6 kinase activity); test: S6 phosphorylation in murine CD4+ cells (immunoblot); format: cell-based, mouse; details: anti-CD3 and anti-CD28, 24 hours
Experimental: Whole-cell lysates were prepared in a solution containing 62.5 mM Tris-HCl (pH 6.8, 2% w/v sodium dodecyl sulfate (SDS), 10% glycerol, 50 mM dithiothreitol (DTT), 0.01% w/v bromophenol blue, 1 mM phenylmethanesulphonyl fluoride or phenylmethylsulphonyl fluoride (PMSF), 1 μg/ml aprotinine, 2 mM EDTA and samples containing 20 μg of proteins (measured by Lowry protein assay) were electrophoresed on a 12% SDS-polyacrylamide gel. The samples were electro-transferred to polyvinylidene difluoride membranes at 5 mA/cm2, using semi-dry blotting system (Fastblot B43, Biorad, Muenchen, Germany). The blots were blocked with 5% w/v nonfat dry milk in PBS 0.1% Tween-20 and probed with specific antibodies to S6 and phosphorylated-S6 (Ser240/244) at 1:500 dilution (both from Cell Signaling Technology, Boston, Mass.), followed by incubation with secondary antibody at 1:10000 dilution (ECL donkey anti-rabbit horseradish peroxidase (HRP)-linked, GE Healthcare, Buckinghamshire, England, UK). […]
In an attempt to determine intracellular signaling that might be responsible for the observed influence of Saq-NO on the cytokines generation, level of S6 phosphorylation as the measure of S6 kinase activity was detected by immunoblot. CD4+ cells were stimulated with anti-CD3 and anti-CD28 in the presence of Saq-NO or Saq for 24 hours and cell lysates were subsequently obtained and analyzed.

[3] = late prophylactic treatment, 10 mg/Kg i.p. daily

SMILES: CC(C)(C)NC(=O)C1C[C@@H]2CCCC[C@@H]2CN1CC(O[N+](=O)[O-])[C@H](Cc1ccccc1)NC(=O)C(CC(N)=O)NC(=O)c1ccc2ccccc2n1 (stereo partly shown) [Saq-NO, nitric ester of Saquinavir]
- Cumulative score and duration of the disease compared to vehicle treated mice (MOG-induced EAE; full therapeutic regime, 10 mg/Kg i.p. daily from onset, 23 days): significant reduction
- Time after treatment interruption to reach the clinical score of vehicle treated mice (MOG-induced EAE; late prophylactic treatment interrupted): ≤ 9 days
- Cumulative score and duration of the disease compared to vehicle treated mice (MOG-induced EAE; [3]): significantly lower
- Clinical course of the disease (MOG-induced EAE; [3]): ameliorated
- Disease after interruption of the late prophylactic treatment (MOG-induced EAE): developed a strong disease
- Anti-cancer properties in comparison to Saq [1]: superior
- % of AnnV+ cells (murine SPC; C 5 μg/ml): 30.2 +/− 7.5%
- % of AnnV+ cells (murine SPC; C 10 μg/ml): 38.4 +/− 4.8%
- % of AnnV+ cells (murine SPC; C 20 μg/ml): 44.5 +/− 11.5%
- S6 phosphorylation [2]: diminished

SMILES: CC(C)(C)NC(=O)[C@@H]1C[C@@H]2CCCC[C@@H]2CN1C[C@@H](O)[C@H](Cc1ccccc1)NC(=O)[C@H](CC(N)=O)NC(=O)c1ccc2ccccc2n1 [Saq, (2S)—N-[(2S,3R)-4-[(3S)-3-(tert-butylcarbamoyl)-decahydroisoquinolin-2-iy]-3-hydroxy-1-phenylbutan-2-il]-2-(quinolin-2-ylformamido)butanediamide, reference compound]
- Clinical course of the disease (MOG-induced EAE; [3]): slightly reduced
- Disease after interruption of the late prophylactic treatment (MOG-induced EAE): maintained the same severity of the disease
- % of AnnV+ cells (murine SPC; C 5 μg/ml): 27.5 +/− 4.8%
- % of AnnV+ cells (murine SPC; C 10 μg/ml): 31.6 +/− 6.4%
- % of AnnV+ cells (murine SPC; C 20 μg/ml): 49.8 +/− 4.8* %
- S6 phosphorylation [2]: much weaker
